Assay results as given in patent publication US4218477A, “Primary aminoacylanilides, methods of making the same and use as antiarrhythmic drugs” (priority 1976, dated 1980).
Read-outs that look alike come from different tables or passages of the source. Values belong to the compound of their own block, whether it stands above or below them.

Legend:
[1] = test system: chloroform-induced arrhythmias; settings: mouse, in vivo
[2] = test system: chloroform-induced arrhythmias; experiment: animal or person; settings: Mus musculus
ventricular fibrillation [3] = experiment: Protection against chloroform induced ventricular fibrillation in mice, oral (Table I); format: in vivo, female Swiss albino mice (HAM/ICR)
Procedure: (§1) The experiments on mice were performed according to a modification of the method described by J. W. Lawson, "Antiarrhythmic activity of some isoquinoline derivatives determined by a rapid screening procedure in the mouse", J. Pharm. Exp. Therap. Vol. 160, pp. 22-31 (1968). This method is based upon the observation that when an unanesthetized, untreated mouse is exposed to chloroform vapor its respiration soon ceases and at that time both electrocardiographic and visual inspection reveal that the cardiac ventricles are fibrillating. If the mouse is treated appropriately with known antiarrhythmic agents prior to exposure to chloroform, the respiratory failure is not accompanied by ventricular fibrillation.

mice [4] = experiment: Ataxia just before CHCl3 challenge in mice, oral (Table I); format: in vivo, female Swiss albino mice (HAM/ICR)
Procedure: as §1

ventricular arrhythmias [5] = format: in vivo, dogs; settings: for adverse reactions / Overt Toxicity: Convulsions, Onset / Overt Toxicity: Emesis / Overt Toxicity: Nystagmus / Overt Toxicity: Other / Overt Toxicity: Tremors / Overt Toxicity: Convulsions, Duration: dog, in vivo, po; for suppression of the ventricular arrhythmias: oral doses, dogs; for Complete Clearing, Duration: return of 50% of suppressed abnormal beats; for Complete Clearing, Onset: abnormal ventricular beats less than 5% of total beats
Procedure: Vol. 1, pp. 1318-1328 (1950). […] The electrocardiographic, cardiovascular and other drug effects were monitored.
Table II summarizes the results of oral administration:
Dogs #215 and #220 given 50 mg/kg dose at 0 mins and 100 mg/kg dose at 24
The electrocardiographic, cardiovascular and other drug effects were monitored.

ventricular arrhythmias [6] = experiment: animal or person; settings: for minimal effective dose: Canis lupus familiaris; for minimal effective dose / adverse reactions: iv; for adverse reactions: dog, in vivo; for Number of dogs showing antiarrhythmic effect: i.v. infusion 15, 30, 60 mg/kg/hr, dogs tested: lidocaine 2, test compound 1, abnormal beats less than 5% of total; for suppression of the ventricular arrhythmias: intravenous doses, dogs
Procedure: Tests on dogs with the compound 2-amino-2',6'-propionoxylidide were conducted according to a modification of the method described by A. S. Harris in "Delayed Development of Ventricular Ectopic Rhythms Following Experimental Coronary Occlusions", Circ. Vol. 1, pp. 1318-1328 (1950). In this method the dogs were anesthetized, the heart was exposed, and the anterior descending branch of the left coronary artery was ligated in two stages. The thorax was closed and the dog was allowed to recover from the anesthesia. […] B. B. Clark and J. R. Cummings, "Arrhythmias Following Experimental Coronary Occlusion and Their Response to Drugs", Annals New York Academy of Sciences, Vol. 65, pp. 543-551 (1956). […] The electrocardiographic, cardiovascular and other drug effects were monitored.
The dosage schedule was: 1st hr.: 15 mg/kg/hr; 2nd hr.: 30 mg/kg/hr; 3rd hr.: 60 mg/kg/hr. Infusions were stopped at the first sign of toxicity other than emesis.
The compound 3-amino-2',6'-butyroxylidide was also tested on dogs, according to a modification of the method of Harris as previously described. As in the previously described tests, unanesthetized dogs were supported in canvas slings and were treated either intravenously or orally with doses of 3-amino-2',6'-butyroxylidide. The electrocardiographic, cardiovascular and other drug effects were monitored.

[7] = test system: chloroform induced fibrillation; experiment: Protection against chloroform induced fibrillation in mice, subcutaneous, potency relative to lidocaine (Table IV); format: in vivo; settings: s.c., 20 min, statistical mean (confidence limits)
Procedure: as §1
The procedure used was a modification of the method previously described. The modification involved using a standard time of 20 minutes for each test run and four different doses of the same drug. Route of administration was subcutaneous.

frog sciatic nerve = experiment: Local anesthetic effect in vitro on the frog sciatic nerve; settings: 20 mM
cardiac arrhythmias = experiment: Antiarrhythmic effect in mice, oral (summary statement); format: in vivo
Procedure: as §1

mice [8] = settings: mouse, in vivo, po, 1440 min
[9] = Acute oral toxicity in mice (24 Hr. mortality); settings: mouse, in vivo, po
ventricular fibrillation [10] = experiment: Protection against chloroform induced fibrillation in the guinea pig, intraperitoneal (Table V); format: in vivo; settings: 326 mg/kg i.p., 20 min before chloroform
Procedure: Guinea pigs (250-350 g) were placed individually into a series of 4000 ml beakers containing cotton and 100 ml of chloroform. After cessation of respiration the animal was removed from the beaker, the thorax was opened and the heart was examined for the presence or absence of ventricular fibrillation. The nature of the cardiac rhythm was confirmed by electrocardiographic recordings.
A single dose (about 1-5 ml) of each test compound was administered intraperitoneally by a 25 gauge needle twenty minutes before the animals were placed in chloroform.

pKa = format: physicochemical; settings: 23; read-out: pkaa^23
[11] = cited from earlier work
mice [12] = experiment: Acute oral toxicity in mice (24 Hr. mortality); settings: oral, mice, 24 hr; dose to kill one of a thousand
[13] = dose LD0.1, drug given 20 min before CHCl3 challenge
[14] = dose LD0.1, drug given 40 min before CHCl3 challenge
[15] = dose LD0.1, drug given 80 min before CHCl3 challenge
[16] = oral, cumulative dose 100 mg/kg as HCl
[17] = oral, cumulative dose 300 mg/kg as HCl

Compound: CCNC(C)C(=O)Nc1c(C)cc(C)cc1C (stereo not drawn)
incidence of ataxia [1]: 100%
incidence of convulsions [1]: 90%
ED50 [2]: 162 mg/kg

Compound: Cc1cccc(C)c1NC(=O)C(C)N (racemic) [2-amino-2',6'-propionoxylidide]
Proportion of mice protected against fibrillation at LD0.1 (ventricular fibrillation [3]; [13]): 9/10
Proportion of mice protected against fibrillation at LD0.1 (ventricular fibrillation [3]; [14]): 9/10
Proportion of mice protected against fibrillation at LD0.1 (ventricular fibrillation [3]; [15]): 10/10
Proportion of mice protected against fibrillation at LD0.1 (ventricular fibrillation [3]; dose LD0.1, drug given 160 min before CHCl3 challenge): 9/10
Proportion of mice having ataxia just before CHCl3 challenge (mice [4]; dose LD0.1, 20 min): 10/10
Proportion of mice having ataxia just before CHCl3 challenge (mice [4]; dose LD0.1, 40 min): 10/10
Proportion of mice having ataxia just before CHCl3 challenge (mice [4]; dose LD0.1, 80 min): 8/10
Proportion of mice having ataxia just before CHCl3 challenge (mice [4]; dose LD0.1, 160 min): 5/10
adverse reactions (ventricular arrhythmias [5]): unaccompanied by any discernible adverse reactions
Overt Toxicity: Convulsions, Onset (ventricular arrhythmias [5]; 50 mg/kg): None
Overt Toxicity: Emesis (ventricular arrhythmias [5]; 50 mg/kg): None
Overt Toxicity: Nystagmus (ventricular arrhythmias [5]; 50 mg/kg): None
Overt Toxicity: Other (ventricular arrhythmias [5]; 50 mg/kg): None
Overt Toxicity: Tremors (ventricular arrhythmias [5]; 50 mg/kg): None
Overt Toxicity: Convulsions, Onset (ventricular arrhythmias [5]; 100 mg/kg): None
Overt Toxicity: Emesis (ventricular arrhythmias [5]; 100 mg/kg): None
Overt Toxicity: Nystagmus (ventricular arrhythmias [5]; 100 mg/kg): None
Overt Toxicity: Other (ventricular arrhythmias [5]; 100 mg/kg): None
Overt Toxicity: Tremors (ventricular arrhythmias [5]; 100 mg/kg): None
Overt Toxicity: Convulsions, Onset (ventricular arrhythmias [5]; 150 mg/kg): None
Overt Toxicity: Nystagmus (ventricular arrhythmias [5]; 150 mg/kg): None
Overt Toxicity: Other (ventricular arrhythmias [5]; 150 mg/kg): None
Overt Toxicity: Tremors (ventricular arrhythmias [5]; 150 mg/kg): None
Overt Toxicity: Convulsions, Duration (ventricular arrhythmias [5]; 200 mg/kg): > 3 min
Overt Toxicity: Nystagmus (ventricular arrhythmias [5]; 200 mg/kg): None
Overt Toxicity: Other (ventricular arrhythmias [5]; 200 mg/kg): None
Overt Toxicity: Convulsions, Duration (ventricular arrhythmias [5]; 300 mg/kg): 17 min
Overt Toxicity: Convulsions, Onset (ventricular arrhythmias [5]; 300 mg/kg): None
Overt Toxicity: Emesis (ventricular arrhythmias [5]; 300 mg/kg): None
Overt Toxicity: Nystagmus (ventricular arrhythmias [5]; 300 mg/kg): None
Overt Toxicity: Other (ventricular arrhythmias [5]; 300 mg/kg): None
Overt Toxicity: Tremors (ventricular arrhythmias [5]; 300 mg/kg): None
suppression of the ventricular arrhythmias (ventricular arrhythmias [5]): distinct suppression of the ventricular arrhythmias
Partial Clearing, Onset (ventricular arrhythmias [5]; oral, cumulative dose 50 mg/kg as HCl, 50-95% reduction of abnormal ventricular beats): None
Complete Clearing, Duration (ventricular arrhythmias [5]; oral, cumulative dose 50 mg/kg as HCl, *** followed by off and on bursts): 195 min
Complete Clearing, Onset (ventricular arrhythmias [5]; [16]): 120 min
Complete Clearing, Duration (ventricular arrhythmias [5]; [16]): 45 min
Complete Clearing, Duration (ventricular arrhythmias [5]; oral, cumulative dose 200 mg/kg as HCl, *** followed by off and on bursts): 30 min
Complete Clearing, Onset (ventricular arrhythmias [5]; [17]): 30 min
Complete Clearing, Duration (ventricular arrhythmias [5]; [17]): > 180 min
minimal effective dose (ventricular arrhythmias [6]; read-out: Antiarrhythmic doses (cumul.)): 75 mg/kg
minimal effective dose (ventricular arrhythmias [6]; read-out: cumulative dose providing antiarrhythmic effects): 75 mg/kg
adverse reactions (ventricular arrhythmias [6]): unaccompanied by any discernible adverse reactions
Number of dogs showing antiarrhythmic effect (ventricular arrhythmias [6]): 1
Toxic doses (cumul.) (ventricular arrhythmias [6]; i.v. infusion, stopped at first sign of toxicity other than emesis, one value per dog): 81 mg/kg
Duration of Antiarrhythmic effect (ventricular arrhythmias [6]; i.v. infusion, return of 50% of suppressed abnormal ventricular beats, one value per dog): 71 min
suppression of the ventricular arrhythmias (ventricular arrhythmias [6]): distinct suppression of the ventricular arrhythmias
Relative Potency (ED50 test compound/ED50 lidocaine) [7]: 0.33 (0.20 - 0.54)
block of the action potential of the nerve (frog sciatic nerve; exposure for 96 min): does not block the action potential at all
maximum oral dosage providing antiarrhythmic effects (cardiac arrhythmias): about 380 mg/kg
24 Hr. Mortality LD0.1 (mice [8]): 382 mg/kg
ED50 [2]: 172 mg/kg
LD50 at 24 h [9]: 529 mg/kg

Compound: Cc1cccc(C)c1NC(=O)CC(C)N (stereo not drawn) [3-amino-2',6'-butyroxylidide]
adverse reactions (ventricular arrhythmias [5]): unaccompanied by any discernible adverse reactions
suppression of the ventricular arrhythmias (ventricular arrhythmias [5]): distinct suppression of the ventricular arrhythmias
adverse reactions (ventricular arrhythmias [6]): unaccompanied by any discernible adverse reactions
suppression of the ventricular arrhythmias (ventricular arrhythmias [6]): distinct suppression of the ventricular arrhythmias
toxic side-effects (ventricular arrhythmias [6]; intravenous, antiarrhythmic doses, dogs (Table VI)): minimal toxic side-effects
Toxicity: Convulsions (ventricular arrhythmias [6]; intravenous, individual dogs): None
Toxicity: Deaths (ventricular arrhythmias [6]; intravenous, individual dogs): None
Relative Potency (ED50 test compound/ED50 lidocaine) [7]: 0.99 (0.60 - 1.9)
Percent of Population Protected (ventricular fibrillation [10]): 100%

pKa (pKa): 8.7 to 8.8
Compound: Cc1cc(C)c(NC(=O)CCN)c(C)c1 [3-amino-2', 4', 6'-propionomesidide, 3-amino-2',4',6'-propionomesidide]

Compound: CCN(CC)CC(=O)Nc1c(C)cccc1C [Lidocaine, 2-diethylamino-2',6'-acetoxylidide]
Proportion of mice protected against fibrillation at LD0.1 (ventricular fibrillation [3]; dose LD0.1, drug given 10 min before CHCl3 challenge): 9/10
Proportion of mice protected against fibrillation at LD0.1 (ventricular fibrillation [3]; [13]): 10/10
Proportion of mice protected against fibrillation at LD0.1 (ventricular fibrillation [3]; [14]): 7/10
Proportion of mice protected against fibrillation at LD0.1 (ventricular fibrillation [3]; [15]): 0/10
Proportion of mice having ataxia just before CHCl3 challenge (mice [4]; dose LD0.1, 10 min): 0/10
Proportion of mice having ataxia just before CHCl3 challenge (mice [4]; dose LD0.1, 20 min): 9/10
Proportion of mice having ataxia just before CHCl3 challenge (mice [4]; dose LD0.1, 40 min): 0/10
Proportion of mice having ataxia just before CHCl3 challenge (mice [4]; dose LD0.1, 80 min): 0/10
Number of dogs showing antiarrhythmic effect (ventricular arrhythmias [6]): 2
inhibition at 20000 µM (frog sciatic nerve; 5 min, after 5 minutes, read-out: block of the action potential of the nerve): 78%
duration of blood levels ([11]; in vivo): fairly short
levels of the drug in the blood ([11]; oral): low levels of the drug in the blood
oral effectiveness ([11]; oral): not orally effective
loss of the drug after oral administration ([11]; oral, probably due to functions of the liver): pronounced loss of the drug
24 Hr. Mortality LD0.1 (mice [12]): 154 mg/kg
